These results are taken from ChEMBL document CHEMBL1153943, “Exploring the pharmacokinetic properties of phosphorus-containing selective HDAC 1 and 2 inhibitors (SHI-1:2)” (Bioorg Med Chem Lett, 2009).

The structures appear in SMILES notation. Activity calls are given as the source filed them. The calls are words filed in the database; no cut-off is given here.

In one data set the target is T1, Histone deacetylase 11 (Homo sapiens, UniProt Q96DB2).
T1 sequence (Q96DB2 whole entry): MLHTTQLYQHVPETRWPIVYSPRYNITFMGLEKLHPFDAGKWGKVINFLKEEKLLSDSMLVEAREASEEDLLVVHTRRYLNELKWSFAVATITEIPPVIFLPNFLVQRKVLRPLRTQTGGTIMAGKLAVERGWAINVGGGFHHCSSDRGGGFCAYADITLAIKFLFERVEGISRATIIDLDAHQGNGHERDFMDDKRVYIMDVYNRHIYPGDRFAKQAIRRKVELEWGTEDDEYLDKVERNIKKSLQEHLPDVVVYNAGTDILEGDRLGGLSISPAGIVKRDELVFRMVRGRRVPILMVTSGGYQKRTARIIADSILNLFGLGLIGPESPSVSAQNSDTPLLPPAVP
In words: Inhibition of HDAC11.

The test system of data set [1] is HCT-116. In words: Antiproliferative activity against human HCT116 cells after 72 hrs. The class given is functional. The conditions noted are these: HCT-116, 72 h.
Data set [2] relates to Mus musculus. In words: Effect on histone H2B acetylation in human HCT116 cells xenografted in CD1 mouse assessed as change in ratio of acetylated to deacetylated histone level at 150 mg/kg, po QD for 3 days measured after 8 hrs. The following applies: HCT-116. Set-up: dose 150 mg/kg. The class given is functional, organism-based.
A further data set addresses Histone deacetylase 1 (Homo sapiens, UniProt Q13547). In words: Inhibition of HDAC1.
The next data set has as its target Histone deacetylase 5 (Homo sapiens, UniProt Q9UQL6). Kind of data set: Inhibition of HDAC5.
Data set [3] concerns HCT-116. Kind of data set: Antitumor activity against human HCT116 cells xenografted in po dosed mouse assessed as reduction in tumor growth dosed daily for 21 days. The class given is functional, organism-based. On the technique in general: A xenograft is tissue or cells of one species grown in another, often human tumour cells in immunodeficient mice.
The target of a further data set is Histone deacetylase 4 (Homo sapiens, UniProt P56524). Kind of data set: Inhibition of HDAC4.
Another data set deals with T2, Histone deacetylase 7 (Homo sapiens, UniProt Q8WUI4).
T2 sequence (Q8WUI4 whole entry): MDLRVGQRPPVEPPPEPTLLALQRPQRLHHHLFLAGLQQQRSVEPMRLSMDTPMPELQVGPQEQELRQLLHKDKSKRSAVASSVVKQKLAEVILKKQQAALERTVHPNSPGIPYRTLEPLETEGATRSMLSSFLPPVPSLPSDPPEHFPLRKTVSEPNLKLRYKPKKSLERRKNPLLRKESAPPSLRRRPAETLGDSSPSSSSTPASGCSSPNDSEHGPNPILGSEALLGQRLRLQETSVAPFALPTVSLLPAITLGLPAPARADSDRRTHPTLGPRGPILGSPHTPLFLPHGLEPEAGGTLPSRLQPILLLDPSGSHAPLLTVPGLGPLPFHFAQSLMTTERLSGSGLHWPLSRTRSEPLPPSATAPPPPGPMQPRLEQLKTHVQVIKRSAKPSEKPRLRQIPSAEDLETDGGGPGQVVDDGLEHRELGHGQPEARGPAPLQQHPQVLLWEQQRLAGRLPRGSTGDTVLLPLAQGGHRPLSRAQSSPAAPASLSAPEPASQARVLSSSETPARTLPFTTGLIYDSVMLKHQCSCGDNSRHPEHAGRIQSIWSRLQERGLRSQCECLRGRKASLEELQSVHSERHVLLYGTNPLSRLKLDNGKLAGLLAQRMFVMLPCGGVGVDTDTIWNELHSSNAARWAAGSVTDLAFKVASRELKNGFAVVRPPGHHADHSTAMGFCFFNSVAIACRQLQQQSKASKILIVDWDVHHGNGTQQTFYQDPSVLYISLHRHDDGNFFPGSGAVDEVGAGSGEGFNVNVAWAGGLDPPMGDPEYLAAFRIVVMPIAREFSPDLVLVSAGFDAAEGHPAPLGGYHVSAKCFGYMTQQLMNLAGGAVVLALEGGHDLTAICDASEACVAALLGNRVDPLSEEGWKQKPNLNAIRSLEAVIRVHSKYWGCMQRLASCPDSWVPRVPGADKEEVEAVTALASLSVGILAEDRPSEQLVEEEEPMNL
In words: Inhibition of HDAC7.

The next data set has as its target T3, Histone deacetylase 8 (Homo sapiens, UniProt Q9BY41).
T3 sequence (Q9BY41 whole entry): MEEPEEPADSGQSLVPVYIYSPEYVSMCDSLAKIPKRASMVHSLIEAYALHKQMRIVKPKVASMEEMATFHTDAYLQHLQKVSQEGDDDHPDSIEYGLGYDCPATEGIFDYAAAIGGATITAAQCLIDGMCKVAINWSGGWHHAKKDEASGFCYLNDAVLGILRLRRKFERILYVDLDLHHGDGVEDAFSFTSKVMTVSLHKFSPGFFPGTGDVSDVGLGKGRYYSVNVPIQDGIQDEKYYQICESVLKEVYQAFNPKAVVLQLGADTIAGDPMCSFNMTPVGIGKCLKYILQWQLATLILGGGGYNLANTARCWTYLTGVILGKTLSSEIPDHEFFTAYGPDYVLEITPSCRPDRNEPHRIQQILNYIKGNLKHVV
Kind of data set: Inhibition of HDAC8.

The target of a further data set is Histone deacetylase 3 (Homo sapiens, UniProt O15379). Kind of data set: Inhibition of HDAC3.
In a further data set the target is Histone deacetylase 2 (Homo sapiens, UniProt Q92769). In words: Inhibition of HDAC2.
Data set [4] has as its target T4, Protein deacetylase HDAC6 (Homo sapiens, UniProt Q9UBN7).
T4 sequence (Q9UBN7 whole entry): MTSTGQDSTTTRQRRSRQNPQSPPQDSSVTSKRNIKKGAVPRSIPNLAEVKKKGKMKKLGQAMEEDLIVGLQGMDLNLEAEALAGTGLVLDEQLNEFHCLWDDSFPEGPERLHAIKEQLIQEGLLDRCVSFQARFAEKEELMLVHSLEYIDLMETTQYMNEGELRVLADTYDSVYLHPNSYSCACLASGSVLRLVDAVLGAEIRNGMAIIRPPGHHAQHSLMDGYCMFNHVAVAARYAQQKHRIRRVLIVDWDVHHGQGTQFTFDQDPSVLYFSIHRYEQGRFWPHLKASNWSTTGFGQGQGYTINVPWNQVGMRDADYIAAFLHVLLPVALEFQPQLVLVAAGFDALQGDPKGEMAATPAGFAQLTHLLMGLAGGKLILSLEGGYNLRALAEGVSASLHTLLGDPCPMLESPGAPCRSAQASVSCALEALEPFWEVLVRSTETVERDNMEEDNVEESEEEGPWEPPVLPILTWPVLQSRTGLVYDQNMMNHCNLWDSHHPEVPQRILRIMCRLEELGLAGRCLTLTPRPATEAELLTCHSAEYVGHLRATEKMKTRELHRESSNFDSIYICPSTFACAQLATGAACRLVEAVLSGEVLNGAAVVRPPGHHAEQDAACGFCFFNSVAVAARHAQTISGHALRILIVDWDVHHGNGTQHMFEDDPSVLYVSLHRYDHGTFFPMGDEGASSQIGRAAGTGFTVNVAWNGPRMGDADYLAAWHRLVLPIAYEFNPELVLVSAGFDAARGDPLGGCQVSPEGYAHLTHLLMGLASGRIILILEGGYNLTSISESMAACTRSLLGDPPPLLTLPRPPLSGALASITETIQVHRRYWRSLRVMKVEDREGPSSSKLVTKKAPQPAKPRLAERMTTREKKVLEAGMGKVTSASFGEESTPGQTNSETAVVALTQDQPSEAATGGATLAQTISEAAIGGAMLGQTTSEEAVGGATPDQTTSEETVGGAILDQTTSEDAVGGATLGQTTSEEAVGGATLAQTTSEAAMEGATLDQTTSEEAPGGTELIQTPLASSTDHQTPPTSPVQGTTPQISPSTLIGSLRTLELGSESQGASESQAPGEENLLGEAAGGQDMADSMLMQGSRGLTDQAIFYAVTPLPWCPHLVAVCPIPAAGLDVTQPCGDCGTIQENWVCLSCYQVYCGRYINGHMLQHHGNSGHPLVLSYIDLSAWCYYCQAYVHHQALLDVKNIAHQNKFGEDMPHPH
In words: Inhibition of HDAC6.

The test system of data set [5] is Mus musculus. In words: Toxicity in human HCT116 cells xenografted CD1 mouse at 150 to 300 mg/kg, po after 21 days. Set-up: dose 150-300 mg/kg, route oral. The class given is organism-based, HCT-116. The following applies: in vivo, 504 h.

Sequence of Histone deacetylase 5 (Q9UQL6 whole entry): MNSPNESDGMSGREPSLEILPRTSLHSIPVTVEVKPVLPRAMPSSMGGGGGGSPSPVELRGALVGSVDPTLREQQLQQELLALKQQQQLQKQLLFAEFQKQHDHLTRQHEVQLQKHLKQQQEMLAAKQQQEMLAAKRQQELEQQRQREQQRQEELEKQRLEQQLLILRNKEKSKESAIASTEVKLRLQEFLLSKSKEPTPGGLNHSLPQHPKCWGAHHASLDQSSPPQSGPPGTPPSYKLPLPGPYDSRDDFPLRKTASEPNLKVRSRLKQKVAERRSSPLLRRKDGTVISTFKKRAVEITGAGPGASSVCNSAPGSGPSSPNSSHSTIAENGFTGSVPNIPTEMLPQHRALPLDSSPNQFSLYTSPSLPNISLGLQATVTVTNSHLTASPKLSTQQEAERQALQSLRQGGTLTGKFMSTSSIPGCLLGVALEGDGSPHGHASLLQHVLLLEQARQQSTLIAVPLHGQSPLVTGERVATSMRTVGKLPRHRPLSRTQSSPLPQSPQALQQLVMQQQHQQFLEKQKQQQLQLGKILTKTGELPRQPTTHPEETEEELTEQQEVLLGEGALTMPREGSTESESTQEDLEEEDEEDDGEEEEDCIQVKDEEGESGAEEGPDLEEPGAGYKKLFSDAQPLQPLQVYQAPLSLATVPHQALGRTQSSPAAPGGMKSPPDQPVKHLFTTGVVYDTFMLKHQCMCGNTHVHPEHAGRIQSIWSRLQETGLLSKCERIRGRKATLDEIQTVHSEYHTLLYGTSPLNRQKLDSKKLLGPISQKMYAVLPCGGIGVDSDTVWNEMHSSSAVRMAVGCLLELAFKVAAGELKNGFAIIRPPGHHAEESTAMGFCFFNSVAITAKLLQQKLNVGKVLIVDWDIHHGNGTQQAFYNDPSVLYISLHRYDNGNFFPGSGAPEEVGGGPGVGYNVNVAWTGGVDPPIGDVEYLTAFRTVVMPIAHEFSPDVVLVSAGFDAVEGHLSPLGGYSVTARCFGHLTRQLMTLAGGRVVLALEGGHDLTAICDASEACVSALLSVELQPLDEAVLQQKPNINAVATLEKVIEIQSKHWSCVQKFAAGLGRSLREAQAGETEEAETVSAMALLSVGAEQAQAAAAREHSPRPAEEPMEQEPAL
Sequence of Histone deacetylase 3 (O15379 whole entry): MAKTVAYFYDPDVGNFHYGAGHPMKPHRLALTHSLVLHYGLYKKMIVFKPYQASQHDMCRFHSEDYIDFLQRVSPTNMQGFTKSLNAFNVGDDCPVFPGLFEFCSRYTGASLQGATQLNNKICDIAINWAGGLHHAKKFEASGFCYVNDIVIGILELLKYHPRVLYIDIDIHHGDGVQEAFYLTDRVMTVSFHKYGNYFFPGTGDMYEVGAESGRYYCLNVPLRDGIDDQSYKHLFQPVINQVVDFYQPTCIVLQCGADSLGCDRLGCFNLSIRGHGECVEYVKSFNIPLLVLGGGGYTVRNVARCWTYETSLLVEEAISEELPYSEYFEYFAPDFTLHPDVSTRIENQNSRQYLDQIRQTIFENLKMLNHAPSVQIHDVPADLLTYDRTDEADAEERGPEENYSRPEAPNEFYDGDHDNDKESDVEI
Sequence of Histone deacetylase 1 (Q13547 whole entry): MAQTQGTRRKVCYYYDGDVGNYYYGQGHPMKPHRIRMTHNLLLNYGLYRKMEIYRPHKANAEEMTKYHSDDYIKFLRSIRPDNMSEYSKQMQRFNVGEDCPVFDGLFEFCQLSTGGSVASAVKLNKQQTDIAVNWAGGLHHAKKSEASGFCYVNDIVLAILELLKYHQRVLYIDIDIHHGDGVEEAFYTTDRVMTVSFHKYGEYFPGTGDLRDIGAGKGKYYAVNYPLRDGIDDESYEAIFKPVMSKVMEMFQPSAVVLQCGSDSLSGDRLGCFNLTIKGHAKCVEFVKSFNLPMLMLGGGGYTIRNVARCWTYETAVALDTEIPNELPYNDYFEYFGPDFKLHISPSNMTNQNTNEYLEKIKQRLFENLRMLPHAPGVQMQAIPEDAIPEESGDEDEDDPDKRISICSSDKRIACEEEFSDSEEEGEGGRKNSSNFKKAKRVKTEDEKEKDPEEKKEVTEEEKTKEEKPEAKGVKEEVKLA
Sequence of Histone deacetylase 2 (Q92769 whole entry): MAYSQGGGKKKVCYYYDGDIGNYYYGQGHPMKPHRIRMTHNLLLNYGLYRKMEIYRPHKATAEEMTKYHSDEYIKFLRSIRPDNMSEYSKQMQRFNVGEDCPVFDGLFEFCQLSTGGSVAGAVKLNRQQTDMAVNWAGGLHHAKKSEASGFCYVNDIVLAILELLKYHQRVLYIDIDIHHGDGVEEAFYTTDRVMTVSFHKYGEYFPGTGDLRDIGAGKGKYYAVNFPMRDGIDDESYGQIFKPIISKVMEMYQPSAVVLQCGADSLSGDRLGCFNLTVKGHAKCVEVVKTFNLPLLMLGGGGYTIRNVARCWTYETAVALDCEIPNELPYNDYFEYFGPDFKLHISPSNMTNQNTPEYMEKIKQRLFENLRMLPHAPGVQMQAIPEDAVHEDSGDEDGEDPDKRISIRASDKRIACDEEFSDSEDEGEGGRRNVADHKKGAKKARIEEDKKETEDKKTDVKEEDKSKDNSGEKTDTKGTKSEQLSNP
Sequence of Histone deacetylase 4 (P56524 whole entry): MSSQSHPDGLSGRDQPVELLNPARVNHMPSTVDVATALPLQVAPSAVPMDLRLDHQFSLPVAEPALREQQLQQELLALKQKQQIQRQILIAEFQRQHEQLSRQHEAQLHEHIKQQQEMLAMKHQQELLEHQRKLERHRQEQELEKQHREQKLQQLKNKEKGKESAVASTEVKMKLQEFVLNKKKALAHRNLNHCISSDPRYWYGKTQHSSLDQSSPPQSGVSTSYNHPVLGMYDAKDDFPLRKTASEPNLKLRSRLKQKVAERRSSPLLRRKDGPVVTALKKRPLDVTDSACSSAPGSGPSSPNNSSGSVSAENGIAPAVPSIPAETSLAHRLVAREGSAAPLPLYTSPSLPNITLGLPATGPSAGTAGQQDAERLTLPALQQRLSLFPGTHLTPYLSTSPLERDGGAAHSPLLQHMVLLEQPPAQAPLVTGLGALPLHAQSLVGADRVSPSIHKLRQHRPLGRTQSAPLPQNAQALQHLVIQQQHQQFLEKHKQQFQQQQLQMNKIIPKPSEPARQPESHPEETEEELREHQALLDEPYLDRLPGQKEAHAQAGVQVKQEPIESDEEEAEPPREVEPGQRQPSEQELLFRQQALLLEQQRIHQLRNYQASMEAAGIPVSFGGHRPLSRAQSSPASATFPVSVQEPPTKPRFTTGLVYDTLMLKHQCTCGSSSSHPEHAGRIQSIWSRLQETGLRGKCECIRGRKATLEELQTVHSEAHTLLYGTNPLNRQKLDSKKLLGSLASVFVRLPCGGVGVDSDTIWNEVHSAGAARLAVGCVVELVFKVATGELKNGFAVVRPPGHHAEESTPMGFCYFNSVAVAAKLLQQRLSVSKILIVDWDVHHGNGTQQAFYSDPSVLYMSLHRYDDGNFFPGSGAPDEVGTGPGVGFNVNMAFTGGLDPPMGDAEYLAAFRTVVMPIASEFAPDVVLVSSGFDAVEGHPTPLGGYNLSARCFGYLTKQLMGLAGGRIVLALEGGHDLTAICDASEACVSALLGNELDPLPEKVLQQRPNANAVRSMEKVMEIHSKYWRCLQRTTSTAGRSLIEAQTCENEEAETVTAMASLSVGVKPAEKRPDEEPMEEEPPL

Usually IC50 stands for the concentration needed to halve the response being measured. Read a high IC50 as weaker potency. Broadly, the GI50 is the concentration giving 50% growth inhibition. Lower therefore signals more potent growth inhibition. Take `CCOP(=O)(CNCc1ccc(C(=O)Nc2cc(-c3cccs3)ccc2N)cc1)OCC`: the IC50 against Histone deacetylase 11 was greater than 50 µM; on Histone deacetylase 1, 0.0077 µM; against Histone deacetylase 5, greater than 50 µM; against Histone deacetylase 4, greater than 50 µM; against Histone deacetylase 7 it was greater than 50 µM; against Histone deacetylase 8, 37 µM. Also, the figures for the IC50 (against Histone deacetylase 3; against Histone deacetylase 2; in [4]) were 12 µM, 0.014 µM and greater than 50 µM, respectively. Growth in the data set with HCT-116 [1] was halved (GI50) at 0.3 µM. Moreover, in the data set with Mus musculus [2], the result was Active. The Activity result was “Dose-dependent effect” in the data set on HCT-116 [3] and “Non-toxic” in the data set on Mus musculus [5].
